This is an account of results in patent US20240059703A1 (AMGEN INC., priority 2021, published 2024).

pIC50: −log10 of the molar value.

Sequence of KRAS G12C (P01116 other isoform, or with tags, fused parts or gaps G12C/C118A): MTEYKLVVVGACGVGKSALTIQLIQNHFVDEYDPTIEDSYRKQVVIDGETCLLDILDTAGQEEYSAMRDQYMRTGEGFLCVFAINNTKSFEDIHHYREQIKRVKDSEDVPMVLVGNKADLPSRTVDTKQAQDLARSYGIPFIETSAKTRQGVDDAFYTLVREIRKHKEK

This experiment addresses KRAS G12C (Homo sapiens (Human), UniProt P01116, C118A/G12C). Nature of the experiment: 2 h coupled exchange assay. The class given is biochemical. To be noted: Avg 2 h Coupled exchange IC50, 2 h compound pre-incubation, SOS-mediated nucleotide exchange. The procedure: The term “2 h coupled exchange assay” or “20 h coupled exchange assay” as used herein refers to the assay described in the Section entitled “BIOLOGICAL EVALUATION.”
`C=CC(=O)N1CC2(CCN(c3nc4c(c(-c5c(O)ccc6ccccc56)c3C#N)COC(C)(C)C4)C2)C1` [Example 13-34, 4-(2-hydroxy-1-naphthalenyl)-7,7-dimethyl-2-(2-(2-propenoyl)-2,6-diazaspiro[3.4]octan-6-yl)-7,8-dihydro-5H-pyrano[4,3-b]pyridine-3-carbonitrile] gave a pIC50 of 6.02.

`C=CC(=O)N1CC2(CCN(c3nc4c(c(-c5c(O)ccc6ccccc56)c3C#N)C[C@H]3C[C@@H]4C3)C2)C1` [Example 13-35, (1S,9S)-6-(2-hydroxy-1-naphthalenyl)-4-(2-(2-propenoyl)-2,6-diazaspiro[3.4]octan-6-yl)-3-azatricyclo[7.1.1.0^2,7]undeca-2,4,6-triene-5-carbonitrile] showed a pIC50 of 5.75.

`C=CC(=O)N1CC2(CCN(c3nc4c(c(-c5c(C)cccc5O)c3C#N)C[C@H]3C[C@@H]4C3)C2)C1` [Example 13-38, (1S,9S)-6-(2-hydroxy-6-methylphenyl)-4-(2-(2-propenoyl)-2,6-diazaspiro[3.4]octan-6-yl)-3-azatricyclo[7.1.1.0^2,7]undeca-2,4,6-triene-5-carbonitrile] showed a pIC50 of 5.85.

`C=CC(=O)N1CC2(CCN(c3nc4c(c(-c5c(C)ccc6[nH]ncc56)c3COC)CCC(C)(C)C4)C2)C1` [Example 13-46, 1-(6-(3-(methoxymethyl)-7,7-dimethyl-4-(5-methyl-1H-indazol-4-yl)-5,6,7,8-tetrahydro-2-quinolinyl)-2,6-diazaspiro[3.4]octan-2-yl)-2-propen-1-one] gave a pIC50 of 6.16.

As for `C=CC(=O)N1CC2(C1)CN(c1nc3c(c(-c4c(C)ccc5cnn(C)c45)c1C#N)COC(C)(C)C3)CC2(F)F` [Example 13-47, 2-(8,8-difluoro-2-(2-propenoyl)-2,6-diazaspiro[3.4]octan-6-yl)-4-(1,6-dimethyl-1H-indazol-7-yl)-7,7-dimethyl-7,8-dihydro-5H-pyrano[4,3-b]pyridine-3-carbonitrile], the pIC50 was 6.53.

The compound `C=CC(=O)N1CC2(CCN(c3nc4c(c(-c5c(C)ccc6cnn(C)c56)c3C#N)COC(C)(C)C4)C2(C)C)C1` [Example 13-48, 4-(1,6-dimethyl-1H-indazol-7-yl)-2-(5,5-dimethyl-2-(2-propenoyl)-2,6-diazaspiro[3.4]octan-6-yl)-7,7-dimethyl-7,8-dihydro-5H-pyrano[4,3-b]pyridine-3-carbonitrile] had a pIC50 of 6.18. Compared with the last compound, the pIC50 is 0.35 log units lower.

Compound `C=CC(=O)N1CC2(CCN(c3nc4c(c(-c5c(C)ccc6cnn(C)c56)c3C#N)COC4(C)C)C2)C1` [Example 13-55, 4-(1,6-dimethyl-1H-indazol-7-yl)-7,7-dimethyl-2-(2-(2-propenoyl)-2,6-diazaspiro[3.4]octan-6-yl)-5,7-dihydrofuro[3,4-b]pyridine-3-carbonitrile] gave a pIC50 of 6.06.

`C=CC(=O)N1CC2(CCN(c3nc4c(c(-c5c(C)ccc6[nH]ncc56)c3C#N)CCC4(F)F)C2)C1` [Example 13-58, 7,7-difluoro-4-(5-methyl-1H-indazol-4-yl)-2-(2-(2-propenoyl)-2,6-diazaspiro[3.4]octan-6-yl)-6,7-dihydro-5H-cyclopenta[b]pyridine-3-carbonitrile] showed a pIC50 of 6.29.

In the case of `C=CC(=O)N1CC2(CCN(c3nc4c(c(-c5c(C)ccc6cnn(C)c56)c3C#N)C[C@H]3C[C@@H]4C3(C)C)[C@@H]2CO)C1` [Example 13-61, (1R,9R)-6-(1,6-dimethyl-1H-indazol-7-yl)-4-((5S)-5-(hydroxymethyl)-2-(2-propenoyl)-2,6-diazaspiro[3.4]octan-6-yl)-10,10-dimethyl-3-azatricyclo[7.1.1.0^2,7]undeca-2,4,6-triene-5-carbonitrile], the pIC50 was 6.48.

The compound `C=CC(=O)N1CC2(CCN(c3nc4c(c(-c5c(C)ccc6cnn(C)c56)c3C#N)C[C@H]3C[C@@H]4C3(C)C)[C@H]2CO)C1` [Example 13-62, (1R,9R)-6-(1,6-dimethyl-1H-indazol-7-yl)-4-((5R)-5-(hydroxymethyl)-2-(2-propenoyl)-2,6-diazaspiro[3.4]octan-6-yl)-10,10-dimethyl-3-azatricyclo[7.1.1.0^2,7]undeca-2,4,6-triene-5-carbonitrile] gave a pIC50 of 6.48.

Compound `C=CC(=O)N1CC2(CCN(c3nc4c(c(-c5c(C)ccc6cnn(C)c56)c3C#N)CCC3CC43)C2CO)C1` (centres unmarked) [Example 13-63] gave a pIC50 of 6.84.

`C=CC(=O)N1CC2(CCN(c3nc4c(c(-c5c(O)cccc5Cl)c3C#N)C[C@H]3C[C@@H]4C3)C2)C1` [Example 13-64, (1S,9S)-6-(2-chloro-6-hydroxyphenyl)-4-(2-(2-propenoyl)-2,6-diazaspiro[3.4]octan-6-yl)-3-azatricyclo[7.1.1.0^2,7]undeca-2,4,6-triene-5-carbonitrile]: the pIC50 was 5.97.

Turning to `C=CC(=O)N1CC2(CCN(c3nc4c(c(-c5cc(O)c(F)c6ccccc56)c3C#N)CC(C)(C)C4)C2)C1` [Example 13-70, 4-(4-fluoro-3-hydroxy-1-naphthalenyl)-6,6-dimethyl-2-(2-(2-propenoyl)-2,6-diazaspiro[3.4]octan-6-yl)-6,7-dihydro-5H-cyclopenta[b]pyridine-3-carbonitrile], the pIC50 was 6.54.

With `C=CC(=O)N1CC2(CCN(c3nc4c(c(-c5cc(O)c(F)c6ccccc56)c3C#N)COC(C)(C)C4)C2)C1` [Example 13-71, 4-(4-fluoro-3-hydroxy-1-naphthalenyl)-7,7-dimethyl-2-(2-(2-propenoyl)-2,6-diazaspiro[3.4]octan-6-yl)-7,8-dihydro-5H-pyrano[4,3-b]pyridine-3-carbonitrile], the pIC50 is 6.44.

`C=CC(=O)N1CC2(CCN(c3nc4c(c(-c5cc(O)c(F)c6ccccc56)c3C#N)CCC3CC43)C2)C1` [Example 13-72, (6aR,7aR)-4-(4-fluoro-3-hydroxy-1-naphthalenyl)-2-(2-(2-propenoyl)-2,6-diazaspiro[3.4]octan-6-yl)-6,6a,7,7a-tetrahydro-5H-cyclopropa[h]quinoline-3-carbonitrile|(6aS,7aS)-4-(4-fluoro-3-hydroxy-1-naphthalenyl)-2-(2-(2-propenoyl)-2,6-diazaspiro[3.4]octan-6-yl)-6,6a,7,7a-tetrahydro-5H-cyclopropa[h]quinoline-3-carbonitrile]: the pIC50 is 6.25.

With `CN(C)C/C=C/C(=O)N1CC2(CCN(c3nc4c(c(-c5cc(O)cc6ccccc56)c3C#N)CCC3CC43)C2)C1` [Example 13-85, (6aR,7aS)-2-(2-((2E)-4-(dimethylamino)-2-butenoyl)-2,6-diazaspiro[3.4]octan-6-yl)-4-(3-hydroxy-1-naphthalenyl)-6,6a,7,7a-tetrahydro-5H-cyclopropa[h]quinoline-3-carbontirile|(6aS,7aR)-2-(2-((2E)-4-(dimethylamino)-2-butenoyl)-2,6-diazaspiro[3.4]octan-6-yl)-4-(3-hydroxy-1-naphthalenyl)-6,6a,7,7a-tetrahydro-5H-cyclopropa[h]quinoline-3-carbonitrile], the pIC50 was 6.50.

Compound `C=CC(=O)N1CC2(CCN(c3nc4c(c(-c5c(C)ccc6[nH]ncc56)c3C#N)OC3(COC3)C4)C2)C1` [Example 13-107, 7-(5-methyl-1H-indazol-4-yl)-5-(2-(2-propenoyl)-2,6-diazaspiro[3.4]octan-6-yl)-3H-spiro[furo[3,2-b]pyridin-2,3′-oxetane]-6-carbonitrile] showed a pIC50 of 6.15. Against the preceding compound, the pIC50 is 0.35 log units lower.

Turning to `C=CC(=O)N1CC2(CCN(c3nc4c(c(-c5cnccc5C)c3C#N)C[C@H]3C[C@@H]4C3(C)C)C2)C1` [Example 13-109, (1R,9R)-10,10-dimethyl-6-(4-methyl-3-pyridinyl)-4-(2-(2-propenoyl)-2,6-diazaspiro[3.4]octan-6-yl)-3-azatricyclo[7.1.1.0^2,7]undeca-2,4,6-triene-5-carbonitrile], the pIC50 is 5.95.

Turning to `C=CC(=O)N1CC2(CCN(c3nc4c(c(-c5c(C)ccc6cnn(C)c56)c3C#N)COC(C3CC3)C4)C2)C1` [Example 13-111, (7R)-7-cyclopropyl-4-(1,6-dimethyl-1H-indazol-7-yl)-2-(2-(2-propenoyl)-2,6-diazaspiro[3.4]octan-6-yl)-7,8-dihydro-5H-pyrano[4,3-b]pyridine-3-carbonitrile|(7S)-7-cyclopropyl-4-(1,6-dimethyl-1H-indazol-7-yl)-2-(2-(2-propenoyl)-2,6-diazaspiro[3.4]octan-6-yl)-7,8-dihydro-5H-pyrano[4,3-b]pyridine-3-carbonitrile], the pIC50 was 6.53.

Take `C=CC(=O)N1CC2(CCN(c3nc4c(c(-c5c(C)ccc6cnn(C)c56)c3C#N)[C@H]3C[C@@H](C4)C3)C2)C1` [Example 13-131, (1S,9S)-3-(1,6-dimethyl-1H-indazol-7-yl)-5-(2-(2-propenoyl)-2,6-diazaspiro[3.4]octan-6-yl)-6-azatricyclo[7.1.1.0^2,7]undeca-2,4,6-triene-4-carbonitrile]: the pIC50 was 7.00.

Compound `C=CC(=O)N1CC2(CCN(c3nc4c(c(-c5c(C)ccc6cnn(C)c56)c3C#N)CNC(C)(C)C4)C2)C1` [Example 13-138, 4-(1,6-dimethyl-1H-indazol-7-yl)-7,7-dimethyl-2-(2-(2-propenoyl)-2,6-diazaspiro[3.4]octan-6-yl)-5,6,7,8-tetrahydro-1,6-naphthyridine-3-carbonitrile] gave a pIC50 of 6.19.

Compound `C=CC(=O)N1CC2(CCN(c3nc4c(c(-c5c(C)ccc6cnn(C)c56)c3C#N)CO[C@H](C)C4)C2)C1` [Example 13-141, (7)-2-(2-acryloyl-2,6-diazaspiro[3.4]octan-6-yl)-4-(1,6-dimethyl-1H-indazol-7-yl)-7-methyl-7,8-dihydro-5H-pyrano[4,3-b]pyridine-3-carbonitrile] had a negative-log IC50 (pIC50) of 6.07.

For the compound `C=CC(=O)N1CC2(CCN(c3nc4c(c(-c5c(C)ccc6cnn(C)c56)c3C#N)CO[C@@H](C)C4)C2)C1` [Example 13-142, (7)-2-(2-acryloyl-2,6-diazaspiro[3.4]octan-6-yl)-4-(1,6-dimethyl-1H-indazol-7-yl)-7-methyl-7,8-dihydro-5H-pyrano[4,3-b]pyridine-3-carbonitrile], the pIC50 was 6.21.
